Measurements from EP0549352B1, “Tricyclic compounds as angiotensin II antagonists” (KYOWA HAKKO KOGYO CO., LTD., priority 1991, dated 1993).

Biological target: T1, AII receptor (Bos taurus, UniProt P25104)
T1 construct: Tissue of bovine adrenal cortex was finely cut and suspended; from tissue; host or cells: bovine adrenal cortex membrane fraction
T1 sequence (P25104 1-359): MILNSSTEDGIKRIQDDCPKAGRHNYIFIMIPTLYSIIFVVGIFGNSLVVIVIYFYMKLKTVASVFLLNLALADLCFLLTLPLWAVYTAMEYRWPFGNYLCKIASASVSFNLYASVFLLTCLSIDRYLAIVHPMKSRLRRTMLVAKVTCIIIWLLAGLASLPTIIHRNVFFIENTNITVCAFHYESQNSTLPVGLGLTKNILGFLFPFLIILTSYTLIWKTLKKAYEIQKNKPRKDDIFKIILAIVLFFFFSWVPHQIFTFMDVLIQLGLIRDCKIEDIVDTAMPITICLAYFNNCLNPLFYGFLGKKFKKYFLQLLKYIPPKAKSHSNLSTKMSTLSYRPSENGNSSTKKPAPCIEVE
Experiment: Receptor binding test using bovine adrenal cortex ([125I]AII binding)
Conditions: test compound 0.1 µM; receptor binding of [125I]AII (2.5 × 10^-10M); bovine adrenal cortex membranes; room temperature, 2 hours; read-out: Inhibition Rate (%)
Description: Receptor binding test using bovine adrenal cortex
Tissue of bovine adrenal cortex was finely cut and suspended in a 0.25M sucrose solution containing NaHCO3, ethylenediaminetetraacetic acid (EDTA), leupepsin, pepstatin A and phenylmethanesulfonyl fluoride, followed by homogenization. The homogenate was centrifuged at 3,000 rpm for 10 minutes and the supernatant was centrifuged at 9,000 rpm. Then, the supernatant was further centrifuged at 30,000 rpm for 60 minutes and the precipitate was suspended in NaHCO3-EDTA solution, followed by centrifugation at 30,000 rpm for 60 minutes. The resulting precipitate was suspended in a phosphate buffer and the suspension was used for the binding test as an AII receptor source.
To a test compound or a solvent were added 250 µl of the AII receptor solution prepared above, 250 µl of Tris 50 mM buffer containing 0.2% bovine serum albumin (BSA), and 20 µl of [^125I]AII (2.5 × 10^-10M). The mixture was allowed to stand at room temperature for 2 hours and then filtered through a glass fiber filter (GF/B Wattman). The filter was placed in a test tube and the radioactivity was measured using a gamma-counter.
The inhibitory activity (inhibition rate) of the test compound (0.1 µM) against the receptor binding of [^125I]AII was calculated by the following equation. Inhibition Rate (%) =(1-((Binding Amount in the Presence of a Test Compound)-(Nonspecific Binding Amount))/((Total Binding Amount)-(Nonspecific Binding Amount)))× 100 [formula]
The binding amount in the presence of a test compound is the amount of radioactivity of [^125I]AII bound in the presence of a test compound (0.1 µM).
The total binding amount is the amount of radioactivity of [^125I]AII bound in the absence of a test compound.
The nonspecific binding amount is the amount of radioactivity of [^125I]AII bound in the presence of 1 µM AII.

**Q.** For `CCc1nc2c(C)cc(C)nc2n1Cc1ccc2c(c1)C=Cc1c(Br)cccc1C2=Cc1nnn[nH]1` [Compound 19, 1-Bromo-8-(5,7-dimethyl-2-ethyl-3H-imidazo[4,5-b]pyridin-3-yl)methyl-5-(1H-tetrazol-5-yl)methylene-5H-dibenzo[a,d]cycloheptene], which inhibition at 0.1 µM is on record?
**A.** 14%

**Q.** For `CCc1nc2c(C)cc(C)nc2n1Cc1ccc2c(c1)SCc1ccccc1C2=Cc1nnn[nH]1` [Compound 22-E, 3-(5,7-Dimethyl-2-ethyl-3H-imidazo[4,5-b]pyridin-3-yl)methyl-11-(1H-tetrazol-5-yl)methylene-6,11-dihydrodibenzo[b,e]thiepine], which inhibition at 0.1 µM is on record?
**A.** 80%

**Q.** With `CCc1nc2c(C)cc(C)nc2n1Cc1ccc2c(c1)OCc1ccccc1C2CC(=O)O` (stereo not shown) [Compound 23, [3-(5,7-Dimethyl-2-ethyl-3H-imidazo[4,5-b]pyridin-3-yl)methyl-6,11-dihydrodibenz[b,e]oxepin-11-yl]acetic acid] as the molecule, how does the inhibition at 0.1 µM read?
**A.** 61%

**Q.** Which inhibition at 0.1 µM does the source give for `CCc1nc2c(C)cc(C)nc2n1Cc1ccc2c(c1)OCc1ccccc1C2Cc1nnn[nH]1` (stereo not shown) [Compound 25, 3-(5,7-Dimethyl-2-ethyl-3H-imidazo[4,5-b]pyridin-3-yl)methyl-11-(1H-tetrazol-5-yl)methyl-6,11-dihydrodibenz[b,e]oxepine] here?
**A.** 94%

**Q.** With `CCc1nc2c(C)cc(C)nc2n1Cc1ccc2c(c1)CCc1ccccc1C2Cc1nnn[nH]1` (stereo not shown) [Compound 28, 2-(5,7-Dimethyl-2-ethyl-3H-imidazo[4,5-b]pyridin-3-yl)methyl-5-(1H-tetrazol-5-yl)methyl-5H-10,11-dihydrodibenzo[a,d]cycloheptene] as the molecule, how does the inhibition at 0.1 µM read?
**A.** 83%

**Q.** For `Cc1cc(C)c2nc(C3CC3)n(Cc3ccc4c(c3)CCc3ccccc3C4Cc3nnn[nH]3)c2n1` (stereo not shown) [Compound 29, 2-(5,7-Dimethyl-2-cyclopropyl-3H-imidazo[4,5-b]pyridin-3-yl)methyl-5-(1H-tetrazol-5-yl)methyl-5H-10,11-dihydrodibenzo[a,d]cycloheptene], which inhibition at 0.1 µM is on record?
**A.** 92%

**Q.** How did the inhibition at 0.1 µM turn out when `CCc1nc2c(C)cc(C)nc2n1Cc1ccc2c(c1)CCc1ccccc1N2Cc1nnn[nH]1` [Compound 32, 2-(5,7-Dimethyl-2-ethyl-3H-imidazo[4,5-b]pyridin-3-yl)methyl-5-(1H-tetrazol-5-yl)methyl-5H-10,11-dihydrodibenz[b,f]azepine] was run?
**A.** 86%

**Q.** `CCc1nc2c(C)cc(C)nc2n1Cc1ccc2c(c1)CCc1ccccc1N2CC(=O)O` [Compound 33, 5-Carboxymethyl-2-(5,7-dimethyl-2-ethyl-3H-imidazo[4,5-b]pyridin-3-yl)methyl-5H-10,11-dihydrodibenz[b,f]azepine] was tested. Which inhibition at 0.1 µM did it give?
**A.** 88%

**Q.** For `Cc1cc(C)c2nc(C3CC3)n(Cc3ccc4c(c3)CCc3ccccc3N4Cc3nnn[nH]3)c2n1` [Compound 34, 2-(5,7-Dimethyl-2-cyclopropyl-3H-imidazo[4,5-b]pyridin-3-yl)methyl-5-(1H-tetrazol-5-yl)methyl-5H-10,11-dihydrodibenz[b,f]azepine], which inhibition at 0.1 µM is on record?
**A.** 97%

**Q.** Which inhibition at 0.1 µM does the source give for `CCc1nc2c(C)cc(C)nc2n1Cc1ccc2c(c1)CCc1ccccc1N2Cc1ccccc1C(=O)O` [Compound 38, 2-[[2-(5,7-Dimethyl-2-ethyl-3H-imidazo[4,5-b]pyridin-3-yl)methyl-5H-10,11-dihydrodibenz[b,f]azepin-5-yl]methyl]benzoic acid] here?
**A.** 68%

**Q.** For `CCCCC(=O)N(Cc1ccc2c(c1)CCc1ccccc1N2Cc1nnn[nH]1)C(C(=O)O)C(C)C` (stereo not shown) [Compound 40, N-[[5-(1H-Tetrazol-5-yl)methyl-5H-10,11-dihydrodibenz[b,f]azepin-2-yl]methyl]-N-valerylvaline], which inhibition at 0.1 µM is on record?
**A.** 95%

**Q.** Which inhibition at 0.1 µM does the source give for `CCc1nc2c(C)cc(C)nc2n1Cc1ccc2c(c1)c1ccccc1n2CCc1nnn[nH]1` [Compound 42, 3-(5,7-Dimethyl-2-ethyl-3H-imidazo[4,5-b]pyridin-3-yl)methyl-9-[2-(1H-tetrazol-5-yl)ethyl]carbazole] here?
**A.** 85%

Test system: hypertensive response to AII
Experiment: Inhibition test against hypertensive response to AII
Type: in vivo, Male Wistar rats
Conditions: test compound 1 mg/kg orally; 0.3 µg/kg AII intravenously one hour after dosing; average artery blood pressure
Description: Inhibition test against hypertensive response to AII
Male Wistar rats were anesthetized with pentobarbital. A cannula for blood pressure measurement was inserted from the right femoral artery into the abdominal aorta and another cannula for AII injection was inserted into the right femoral vein. The cannulae were passed under skin and fixed after coming out of the back, and the blood pressure was recorded on a polygraph from the artery cannula using a voltage transformer.
On the day after operation, 0.3 µg/kg AII was intravenously injected into each animal and the change in the average artery blood pressure was examined as the control pressor response. Then, a test compound (1 mg/kg) was orally administered and after one hour, 0.3 µg/kg AII was injected again, followed by examination of the pressor response. The inhibitory effect of the test compound against the control pressor response was determined as the inhibition rate.

**Q.** How did the “inhibition rate against the control pressor response” value turn out when `CCc1nc2c(C)cc(C)nc2n1Cc1ccc2c(c1)CCc1ccccc1N2Cc1nnn[nH]1` [Compound 32, 2-(5,7-Dimethyl-2-ethyl-3H-imidazo[4,5-b]pyridin-3-yl)methyl-5-(1H-tetrazol-5-yl)methyl-5H-10,11-dihydrodibenz[b,f]azepine] was run?
**A.** 45%
